The results in this text go back to ChEMBL document CHEMBL1150461, “Synthesis of new 3-thiosubstituted carbacephem antibiotics and their activity against penicillin resistant Streptococcus pneumoniae” (1997).

Holding throughout (assay type): functional
The subject of assay [1] is Streptococcus pneumoniae. Briefly: In vitro minimum inhibitory concentration against penicillin intermediate Streptococcus pneumoniae strains (number of strains = 3).
Assay [2] deals with Streptococcus pneumoniae. Briefly: In vitro minimum inhibitory concentration against penicillin resistant Streptococcus pneumoniae strains (PRSP) (number of strains = 5).
The subject of assay [3] is Streptococcus pneumoniae. Briefly: In vitro minimum inhibitory concentration against penicillin susceptible Streptococcus pneumoniae strains (number of strains = 3).

In brackets after ≈: the same amount, converted by molar mass.

Consider `N[C@@H](C(=O)N[C@@H]1C(=O)N2C(C(=O)O)=C(Sc3ccccn3)CC[C@H]12)c1ccccc1`, for which the figures for the MIC against Streptococcus pneumoniae [1], against Streptococcus pneumoniae [2] and against Streptococcus pneumoniae [3] were 1 µg/mL (≈ 2.36 µM), 2 µg/mL (≈ 4.71 µM) and 0.06 µg/mL (≈ 0.141 µM), respectively.

For `CCSc1nnc(SC2=C(C(=O)O)N3C(=O)[C@@H](NC(=O)[C@H](N)c4ccccc4)[C@H]3CC2)s1`, the MIC (commonly the lowest concentration found to suppress growth) against Streptococcus pneumoniae [1] was 0.25 µg/mL (≈ 0.509 µM); against Streptococcus pneumoniae [2] it was 0.5 µg/mL (≈ 1.02 µM); with Streptococcus pneumoniae [3] it was 0.03 µg/mL (≈ 0.061 µM).

Regarding `N[C@@H](C(=O)N[C@@H]1C(=O)N2C(C(=O)O)=C(Sc3ccncc3)CC[C@H]12)c1ccccc1`, the minimum inhibitory concentration (MIC) amounted to 0.25 µg/mL (≈ 0.589 µM) in the assay on Streptococcus pneumoniae [1], 4 µg/mL (≈ 9.42 µM) against Streptococcus pneumoniae [2] and 0.12 µg/mL (≈ 0.283 µM) against Streptococcus pneumoniae [3].

As to `N[C@@H](C(=O)N[C@@H]1C(=O)N2C(C(=O)O)=C(Sc3cccs3)CC[C@H]12)c1ccccc1`, the minimum inhibitory concentration (MIC) came out at 2 µg/mL (≈ 4.66 µM) in the assay with Streptococcus pneumoniae [1], 16 µg/mL (≈ 37.3 µM) in the assay on Streptococcus pneumoniae [2] and 0.25 µg/mL (≈ 0.582 µM) in the assay on Streptococcus pneumoniae [3].

As to `N[C@@H](C(=O)N[C@@H]1C(=O)N2C(C(=O)O)=C(Sc3nncs3)CC[C@H]12)c1ccccc1`, the minimal inhibitory concentration (MIC) against Streptococcus pneumoniae [1] was 0.25 µg/mL (≈ 0.579 µM); with Streptococcus pneumoniae [2], 1 µg/mL (≈ 2.32 µM); in the assay with Streptococcus pneumoniae [3], 0.06 µg/mL (≈ 0.139 µM).

On to `N[C@@H](C(=O)N[C@@H]1C(=O)N2C(C(=O)O)=C(Sc3ccccc3CO)CC[C@H]12)c1ccccc1`, for which the MIC in the assay with Streptococcus pneumoniae [1] came to 2 µg/mL (≈ 4.41 µM); with Streptococcus pneumoniae [2], 4 µg/mL (≈ 8.82 µM); against Streptococcus pneumoniae [3] it was 0.06 µg/mL (≈ 0.132 µM).

For `C[n+]1ccc(SC2=C(C(=O)[O-])N3C(=O)[C@@H](NC(=O)[C@H](N)c4ccccc4)[C@H]3CC2)cc1`, the minimal inhibitory concentration (MIC) against Streptococcus pneumoniae [1] worked out at 1 µg/mL (≈ 2.28 µM); in the assay with Streptococcus pneumoniae [2] it was 4 µg/mL (≈ 9.12 µM); against Streptococcus pneumoniae [3], 0.25 µg/mL (≈ 0.57 µM).

With `N[C@@H](C(=O)N[C@@H]1C(=O)N2C(C(=O)O)=C(Sc3ccccc3Br)CC[C@H]12)c1ccccc1`, the MIC in the assay on Streptococcus pneumoniae [1] turned out to be 0.25 µg/mL (≈ 0.498 µM); in the assay on Streptococcus pneumoniae [2], 2 µg/mL (≈ 3.98 µM); against Streptococcus pneumoniae [3], 0.06 µg/mL (≈ 0.119 µM).

In the case of `N[C@@H](C(=O)N[C@@H]1C(=O)N2C(C(=O)O)=C(Sc3nnc(SCC4CC4)s3)CC[C@H]12)c1ccccc1`, the minimum inhibitory concentration (MIC) against Streptococcus pneumoniae [1] was 0.06 µg/mL (≈ 0.116 µM); against Streptococcus pneumoniae [2], 0.25 µg/mL (≈ 0.483 µM); against Streptococcus pneumoniae [3], less than 0.03 µg/mL.

As to `CSC1=C(C(=O)O)N2C(=O)[C@@H](NC(=O)[C@H](N)c3ccccc3)[C@H]2CC1`, the MIC in the assay with Streptococcus pneumoniae [1] is 8 µg/mL (≈ 22.1 µM); against Streptococcus pneumoniae [2], greater than 16 µg/mL; against Streptococcus pneumoniae [3], 1 µg/mL (≈ 2.77 µM).

In the case of `N[C@@H](C(=O)N[C@@H]1C(=O)N2C(C(=O)O)=C(Sc3cnns3)CC[C@H]12)c1ccccc1`, the figures for the minimum inhibitory concentration (MIC) against Streptococcus pneumoniae [1], against Streptococcus pneumoniae [2] and in the assay with Streptococcus pneumoniae [3] were 0.25 µg/mL (≈ 0.579 µM), 1 µg/mL (≈ 2.32 µM) and 0.06 µg/mL (≈ 0.139 µM), respectively.

For the molecule `Nc1nnc(SC2=C(C(=O)O)N3C(=O)[C@@H](NC(=O)[C@H](N)c4ccccc4)[C@H]3CC2)s1`, the minimum inhibitory concentration (MIC) against Streptococcus pneumoniae [1] is 0.5 µg/mL (≈ 1.12 µM); with Streptococcus pneumoniae [2] it was 2 µg/mL (≈ 4.48 µM); against Streptococcus pneumoniae [3], 0.06 µg/mL (≈ 0.134 µM).

Take `Cn1ccnc1SC1=C(C(=O)O)N2C(=O)[C@@H](NC(=O)[C@H](N)c3ccccc3)[C@H]2CC1`: the figures for the MIC in the assay on Streptococcus pneumoniae [1], in the assay on Streptococcus pneumoniae [2] and in the assay with Streptococcus pneumoniae [3] were 8 µg/mL (≈ 18.7 µM), greater than 16 µg/mL and 1 µg/mL (≈ 2.34 µM), respectively.

`N[C@@H](C(=O)N[C@@H]1C(=O)N2C(C(=O)O)=C(Sc3ncccn3)CC[C@H]12)c1ccccc1`: the minimal inhibitory concentration (MIC) in the assay with Streptococcus pneumoniae [1] is 0.5 µg/mL (≈ 1.18 µM); in the assay on Streptococcus pneumoniae [2], 4 µg/mL (≈ 9.4 µM); with Streptococcus pneumoniae [3] it was 0.12 µg/mL (≈ 0.282 µM).

As to `N[C@@H](C(=O)N[C@@H]1C(=O)N2C(C(=O)O)=C(Sc3ccccc3)CC[C@H]12)c1ccccc1`, the values for the MIC against Streptococcus pneumoniae [1], in the assay on Streptococcus pneumoniae [2] and against Streptococcus pneumoniae [3] were 1 µg/mL (≈ 2.36 µM), 4 µg/mL (≈ 9.45 µM) and 0.06 µg/mL (≈ 0.142 µM), respectively.

On to `N=C(N)SCc1ccccc1SC1=C(C(=O)O)N2C(=O)[C@@H](NC(=O)[C@H](N)c3ccccc3)[C@H]2CC1`, for which the minimal inhibitory concentration (MIC) was 0.25 µg/mL (≈ 0.489 µM) against Streptococcus pneumoniae [1], 0.5 µg/mL (≈ 0.977 µM) in the assay on Streptococcus pneumoniae [2] and 0.02 µg/mL (≈ 0.0391 µM) in the assay with Streptococcus pneumoniae [3].

For `Cn1cnnc1SC1=C(C(=O)O)N2C(=O)[C@@H](NC(=O)[C@H](N)c3ccccc3)[C@H]2CC1`, the MIC is 4 µg/mL (≈ 9.34 µM) in the assay with Streptococcus pneumoniae [1], greater than 16 µg/mL in the assay with Streptococcus pneumoniae [2] and 0.5 µg/mL (≈ 1.17 µM) against Streptococcus pneumoniae [3].

Regarding `N[C@@H](C(=O)N[C@@H]1C(=O)N2C(C(=O)O)=C(Sc3nc4ccccc4s3)CC[C@H]12)c1ccccc1`, the MIC against Streptococcus pneumoniae [1] is 4 µg/mL (≈ 8.32 µM); against Streptococcus pneumoniae [2], 8 µg/mL (≈ 16.6 µM); against Streptococcus pneumoniae [3], 0.5 µg/mL (≈ 1.04 µM).

For `Cc1nnc(SC2=C(C(=O)O)N3C(=O)[C@@H](NC(=O)[C@H](N)c4ccccc4)[C@H]3CC2)s1`, the minimal inhibitory concentration (MIC) against Streptococcus pneumoniae [1] came out at 1 µg/mL (≈ 2.24 µM); against Streptococcus pneumoniae [2], 1 µg/mL (≈ 2.24 µM); against Streptococcus pneumoniae [3] it was 0.03 µg/mL (≈ 0.0673 µM).

In the case of `CSc1nnc(SC2=C(C(=O)O)N3C(=O)[C@@H](NC(=O)[C@H](N)c4ccccc4)[C@H]3CC2)s1`, the MIC against Streptococcus pneumoniae [1] is 0.06 µg/mL (≈ 0.126 µM); against Streptococcus pneumoniae [2] it was 0.25 µg/mL (≈ 0.523 µM); in the assay on Streptococcus pneumoniae [3] it was less than 0.03 µg/mL.

As to `N[C@@H](C(=O)N[C@@H]1C(=O)N2C(C(=O)O)=C(Sc3nccs3)CC[C@H]12)c1ccccc1`, the MIC amounted to 2 µg/mL (≈ 4.65 µM) in the assay on Streptococcus pneumoniae [1], 4 µg/mL (≈ 9.29 µM) against Streptococcus pneumoniae [2] and 0.12 µg/mL (≈ 0.279 µM) against Streptococcus pneumoniae [3].

For `N[C@@H](C(=O)N[C@@H]1C(=O)N2C(C(=O)O)=C(Cl)CC[C@H]12)c1ccccc1` [LORACARBEF ANHYDROUS], the MIC in the assay with Streptococcus pneumoniae [1] was 8 µg/mL (≈ 22.9 µM); in the assay on Streptococcus pneumoniae [2], greater than 16 µg/mL; in the assay with Streptococcus pneumoniae [3] it was 2 µg/mL (≈ 5.72 µM).
